Legend:
[1] = test system: patients with Grade II GVHD with gastrointestinal symptoms; experiment: Phase III randomized, double-blind, placebo-controlled trial of oral BDP plus 10 days of prednisone: treatment failure and survival; format: in vivo, human; settings: for Treatment failure rate (95% CI): Kaplan-Meier estimate
Excerpt: The Secondary objectives of the study were: • 1. To compare the proportion of treatment failures in the two groups on Study Days 10, 30, 50, 60, and 80. • 2. To compare the treatment groups with respect to cumulative systemic corticosteroid exposure. • 3. […] To compare the treatment groups with respect to total deaths and cause of death through 200 days post-transplant. • 6.
To be eligible for entry into the study, patients must be at least 10 days post allogeneic hematopoietic cell transplantation, have GI symptoms consistent with Grade II GVHD, and have endoscopic evidence of GVHD. The diagnosis of GVHD was confirmed by biopsy of the intestine (esophagus, stomach, small intestine, or colon) or skin.
This was a multi-center, randomized, double-blind, placebo-controlled, parallel-group study in patients with Grade II GVHD with GI symptoms. To determine eligibility for entry into the study, patients must undergo a screening evaluation, including intestinal or skin biopsy and infection work-up.
The randomization was stratified by the source of the allograft (two HLA haplotype identical sibling versus all other), and by topical corticosteroid use (yes versus no). All patients received 10 days of prednisone at 1 mg/kg/day (or an equivalent dose of intravenous [IV] corticosteroid).
For all patients, the second dose of study drug was administered on the morning of Study Day 2, after which dosing was 4 times daily until Study Day 50.
All patients are monitored per standard post transplant routine in the hospital or outpatient clinic. Patients underwent study evaluations, included blood specimens for PK analysis, on Study Days 10, 30, 50, 60, and 80. In addition, adverse events that occurred during the interval since the prior visit are assessed and recorded. Following the final dose of study drug on the morning of Study Day 50, timed blood samples were obtained for up to 24 hours for PK analysis from some patients.
• 1. […] Karnofsky Scale score if the patient is 16 years of age or older or the Lansky Scale score if the patient is younger than 16 years of age.
• 1. Adverse events. • 2. Cumulative prednisone dose (per kg of body weight). • 3. Worsening of GVHD as determined through the assessment of diarrhea, rash, and bilirubin levels. • 4. HPA axis function. • 5. Hematology measurements (with differential, including eosinophils) at Baseline and Study Day 50. • 6. Serum chemistry and urinalysis measurements at Baseline and Study Day 50. • 7. Patient survival through day 200 post-transplant.
The primary efficacy endpoint of this two-arm study is the time to treatment failure. The primary efficacy analysis will compare the time to treatment failure through Study Day 50 using a log-rank test controlling for patient randomization stratum. Product-limit estimates for time to failure will be provided for descriptive purposes. The null hypothesis for the log-rank test is that time to failure is homogeneous across the treatment groups.
Secondary analyses of treatment failure compared the treatment groups with respect to proportion of treatment failures and Karnofsky Scale (or Lansky Scale) scores at key time points.
Both regimens included oral prednisone (1 mg/kg/day) or an equivalent dose of IV methylprednisolone (dose of IV methylprednisolone=0.8×dose of oral prednisone) given in 2 divided doses per day on Study Days 1 to 10.
On Study Day 10, patients were evaluated for the signs and symptoms of GVHD. […] Starting on Study Day 17, physiologic replacement doses of prednisone were given for the remainder of the study. If the investigator determined that GVHD was not controlled on Study Day 10, patients discontinued study drug but continued prednisone initially at 1 mg/kg/day; these patients were considered to be treatment failures. In treatment failure cases, physicians subsequently modified prednisone dosage as deemed appropriate.

[2] = test system: patients with gastrointestinal GVHD; settings: cited from earlier work
[3] = test system: patients with GVHD; settings: high-dose prednisone, 2 mg per kg per day; cited from earlier work

Row | Compound | Day 200 survival rate (95% CI) ([1]; 200 days post-transplant, Safety Population) | Treatment failure rate (95% CI) ([1]; Study Day 10) | Treatment failure rate (95% CI) ([1]; Study Day 30) | Treatment failure rate (95% CI) ([1]; Study Day 50) | Treatment failure rate (95% CI) ([1]; Study Day 60) | Treatment failure rate (95% CI) ([1]; Study Day 80) | time to treatment failure through Day 50 (primary endpoint), significance versus placebo ([1]; through Day 50, p-value 0.1177) | time to treatment failure through Day 80 (secondary endpoint), significance versus placebo ([1]; through Day 80, p-value 0.0226) | appetite, oral intake, nausea and diarrhea over the course of therapy ([2]; 8 mg daily oral, BDP alone and added to prednisone) | treatment-related adverse events ([2]; 8 mg/day for 28 days) | time to improvement ([2]; BDP as monotherapy) [days] | safety and efficacy in mild-to-moderate intestinal GVHD ([2]; alone or added to prednisone) | complete and sustained remission of gastrointestinal symptoms [3]
1 | CCC(=O)OCC(=O)[C@@]1(OC(=O)CC)[C@@H](C)C[C@H]2[C@@H]3CCC4=CC(=O)C=C[C@]4(C)[C@@]3(Cl)[C@@H](O)C[C@@]21C [BDP, beclomethasone dipropionate] | 0.91 (0.86, 0.98) | 0.14 (0.08, 0.24) | 0.25 (0.18, 0.37) | 0.31 (0.23, 0.43) | 0.33 (0.24, 0.45) | 0.39 (0.30, 0.52) | did not achieve statistical significance | did achieve statistical significance | Significant improvement | No significant treatment-related adverse events | 7 to 10 | safe and effective | 
2 | C[C@]12C=CC(=O)C=C1CC[C@@H]1[C@@H]2C(=O)C[C@@]2(C)[C@H]1CC[C@]2(O)C(=O)CO [Prednisone, prednisone] |  |  |  |  |  |  |  |  |  |  |  |  | 50-70 % of patients

Source: patent US20100184732A1, “METHOD OF LONG-TERM TREATMENT OF GRAFT-VERSUS-HOST DISEASE USING TOPICAL ACTIVE CORTICOSTEROIDS” (priority 2000, published 2010)
